Patent publication US9051564B2, “Compositions for and methods of identifying antigens” (President and Fellows of Harvard College, priority 2006, dated 2015)
Entries after “also recorded” stand apart in the source; their conditions may differ.

Assays:
Format in all cases: cell-based, mouse
T cell clone NR9.2 [1] = assay: Epitope mapping: overlapping synthetic 20-mer Cta1 peptides tested for stimulating NR9.2 to secrete IFNγ (ELISA); details: for IFNγ measured: T cell line NR9.2, synthetic peptides at 25 μM
From the text: FIG. 22 is a graph showing T cell clone NR9.2 recognizes the novel T cell antigen Cta1133-152 (SEQ ID NO:2). The antigenic peptide from Cta1 was mapped by testing overlapping 20-mer synthetic peptides for their ability to stimulate NR9.2 to secrete IFNγ. […] Shown below is the protein sequence of Cta1 (SEQ ID NO:1) with […] (SEQ ID NO:2) underlined.
To map more closely the epitope within Cta1 recognized by the NR9.2 T cells, a series of overlapping 20-mer peptides covering the Cta1 sequence for their ability to stimulate NR9.2 to secrete IFNγ were screened (Table 2).
Identification of the T cell antigen Cta1. An expression library of genomic sequences from C. trachomatis serovar D was inserted into a modified form of the pDEST17 vector (Invitrogen) and transformed into the Stb12 strain of E. coli (Invitrogen). Following induction of protein expression, the bacteria were fixed in 0.5% paraformaldehyde and incubated with BMMs. NR9.2 T cells were then added and after 24 h, the supernatant was tested for the level of IFNγ by ELISA (Endogen, Rockford, Ill.). To identify the reactive peptide epitope within Cta1, synthetic 20-mer peptides (MIT Biopolymers Lab, Cambridge, Mass.) were used at a concentration of 25 μM in an IFNγ ELISA (Endogen).

[2] = tested on: spleen cells from NR1 TCR transgenic mice; assay: Proliferation of NR1 transgenic splenocytes in response to peptide ([3H]thymidine incorporation); details: spleen cells from naïve NR1 mice
Method: FIG. 16B is a graph showing proliferation of splenocytes from NR1 transgenic or non-transgenic mice in response to the indicated concentrations of Cta1133-152 (SEQ ID NO:2). Proliferation was measured by [^3H]thymidine incorporation into cells.
To determine whether the NR1 transgenic T cells were specific and responsive to Cta1, we tested the proliferation of transgenic spleen cells in response to Cta1133-152 (see FIG. 14; SEQ ID NO:2).

[3] = tested on: spleen cells from NR1 TCR transgenic mice; assay: IFNγ secretion by NR1 spleen cells in response to peptide; details: data not shown
T cell clone NR9.2 [4] = assay: Screen of E. coli clones expressing C. trachomatis ORFs, cultured with BMMs and T cell clone NR9.2, IFNγ ELISA
Method: FIG. 15 is an image showing clones of E. coli expressing individual C. trachomatis ORFs cultured with BMMs and then incubated with the T cell clone NR9.2. […] E. coli expressing Cta1 (encoded by ORF CT788) induced NR9.2 to secrete high levels of IFNγ (>370 ng/ml) whereas E. coli expressing other Chlamydia proteins in the library induced only background levels of IFNγ secretion (<26 ng/ml). The well indicated as Cta1 and ELISA Standards are yellow; other wells are colorless. […] ELISA standards corresponding to high amounts of IFNγ are indicated.
Chlamydia specific CD4+ T cell clone. To identify a Chlamydia-specific TCR for the creation of TCR transgenic mice, we generated a Chlamydia-specific CD4^+ T cell clone named NR9.2. The clone specifically secreted IFNγ when co-cultured with Chlamydia-infected macrophages in an intracellular cytokine staining assay (FIG. 13A). […] A library of proteins expressed by the C. trachomatis ORFs contained in the genome database was screened. […] CT788 was annotated in the published C. trachomatis genome as a predicted periplasmic protein of unknown function (Stephens et al., Science 282:754-759, 1998), and its sequence shares little homology with proteins outside of the Chlamydia genus. CT788 was designated Cta1 (Chlamydia-specific T cell antigen-1).
Identification of the T cell antigen Cta1. […]

Row | Molecule | IFNγ measured (T cell clone NR9.2 [1]) | also measured
1 | NRSMDQQDSEEFLLQNTLED [overlapping synthetic 20-mer peptide of Cta1] | 0.6 (±0.3) ng | 
2 | NQIAIDTEKWFYLNKDYTNV [overlapping synthetic 20-mer peptide of Cta1] | 0.5 (±0.2) ng | 
3 | GCANKKNRNLIGWFLAGMFF [overlapping synthetic 20-mer peptide of Cta1] | 0.5 (±0.3) ng | 
4 | WKKGMPNWEKVKNIPELSGT [overlapping synthetic 20-mer peptide of Cta1] | 1.4 (±0.2) ng | 
5 | IGWFLAGMFFGIFAIIFLLI [overlapping synthetic 20-mer peptide of Cta1] | 0.6 (±0.3) ng | 
6 | OVA323-336: control peptide from ovalbumin (KISQAVHAAHAEIN) [reference compound] |  | proliferation of NR1 spleen cells in response to peptide [2]: did not proliferate
7 | KGIDPQELWVWKKGMPNWEK (listed as Chlamydia trachomatis) [20-mer peptide, amino acids 133-152 of Cta1 (CT788)] | 58.0 (±14.0) ng | proliferation of NR1 spleen cells in response to peptide [2]: strong proliferative response; ability to stimulate NR9.2 to secrete IFNγ (in words) (T cell clone NR9.2 [1]; overlapping 20-mer peptides, listed as Cta1133-152): induced NR9.2 to secrete significant levels of IFNγ; also recorded: stimulated NR9.2 to secrete significant levels of IFNγ; IFNγ secretion by NR1 spleen cells in response to peptide [3]: secreted high levels of IFNγ
8 | GPISIVQLTAFLKECKHSPE [overlapping synthetic 20-mer peptide of Cta1] | 0.5 (±0.3) ng | 
9 | FYLNKDYTNVGPISIVQLTA [overlapping synthetic 20-mer peptide of Cta1] | 0.7 (±0.4) ng | 
10 | LPPLPSSTQDNRSMDQQDSE [overlapping synthetic 20-mer peptide of Cta1] | 0.6 (±0.2) ng | 
11 | GIFAIIFLLILPPLPSSTQD [overlapping synthetic 20-mer peptide of Cta1] | 0.4 (±0.2) ng | 
12 | EFLLQNTLEDSEIISIPDTM [overlapping synthetic 20-mer peptide of Cta1] | 0.6 (±0.2) ng | 
13 | LESTSLYKKAGCANKKNRNL [overlapping synthetic 20-mer peptide of Cta1] | 0.4 (±0.2) ng | 
14 | FLKECKHSPEKGIDPQELWV [overlapping synthetic 20-mer peptide of Cta1] | 0.5 (±0.4) ng | 
15 | VKNIPELSGTVKDESPSFLV [overlapping synthetic 20-mer peptide of Cta1] | 0.8 (±0.1) ng | 
16 | VKDESPSFLVQSGVAGLEQL [overlapping synthetic 20-mer peptide of Cta1] | 0.7 (±0.2) ng | 
17 | SEIISIPDTMNQIAIDTEKW [overlapping synthetic 20-mer peptide of Cta1] | 0.6 (±0.2) ng | 
18 | QSGVAGLEQLESI [C-terminal overlapping synthetic peptide of Cta1] | 0.8 (±0.2) ng | 
19 | Cta1: Chlamydia-specific T cell antigen-1, protein encoded by C. trachomatis ORF CT788; predicted periplasmic protein of unknown function (protein, listed as Chlamydia trachomatis) MNSGMFPFTFFLLYICLGMLTAYLANKKNRNLIGWFLAGMFFGIFAIIFLLILPPLPSSTQDNRSMDQQDSEEFLLQNTLEDSEIISIPDTMNQIAIDTEKWFYLNKDYTNVGPISIVQLTAFLKECKHSPEKGIDPQELWVWKKGMPNWEKVKNIPELSGTVKDE |  | stimulation of NR9.2 to secrete IFNγ (in words) (T cell clone NR9.2 [4]; 894 ORFs screened, E. coli expressing the protein): stimulated NR9.2 to secrete significant levels of IFNγ; IFNγ secreted by NR9.2 (T cell clone NR9.2 [4]; E. coli expressing the ORF, cultured with BMMs then NR9.2, supernatant IFNγ ELISA): > 370 ng/mL
